The target in experiment [1] is T1, GPD1 (Homo sapiens, UniProt P21695).
T1 construct: purchased recombinant protein (Proteintech Ag4471); Red-NHS dye labelled for MST; source of enzyme in activity assay not restated
T1 sequence (P21695 1-349): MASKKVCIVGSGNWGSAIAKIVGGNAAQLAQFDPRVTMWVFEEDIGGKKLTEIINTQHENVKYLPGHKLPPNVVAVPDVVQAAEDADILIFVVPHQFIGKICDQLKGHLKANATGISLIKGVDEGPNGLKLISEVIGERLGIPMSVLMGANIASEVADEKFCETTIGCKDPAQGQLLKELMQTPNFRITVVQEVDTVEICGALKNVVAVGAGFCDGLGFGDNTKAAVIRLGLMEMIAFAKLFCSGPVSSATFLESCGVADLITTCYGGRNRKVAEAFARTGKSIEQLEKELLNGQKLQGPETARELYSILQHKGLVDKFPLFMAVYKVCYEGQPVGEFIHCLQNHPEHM
Description: microscale thermophoresis (Monolith NT.[…], Hill fit). It is filed as binding.

The target in experiment [2] is T1, GPD1. In words: NADH absorbance at […] nm, initial rate of DHAP reduction. It is filed as biochemical. Particulars: 200 uM NADH, 8 mM DHAP, 1 uM GPD1, 20 mM TEA, 0.1 mg/mL BSA, I = 0.12 (NaCl); activator, proposed allosteric.

SMILES strings stand for the structures.

By Kd is commonly meant a measure of binding affinity in units of concentration. The low end stands for a tighter complex, the high end for a looser complex. Molecule `COc1cc(O)c2c(c1)oc(=O)c1c3cc(O)c(O)cc3oc21` [wedelolactone] displayed a Kd at GPD1 [1] of 505 nM. Moreover, at GPD1 [2], the activation entry is “wedelolactone (WE) from Bioactive Compound Library Plus in MedChemExpress LLC had substantial activity”.

(Values after article PMC9284842, “Allosteric activation of the metabolic enzyme GPD1 inhibits bladder cancer growth via the lysoPC-PAFR-TRPV2 axis” (Journal of Hematology & Oncology, 2022).)
